Read-outs that look alike come from different tables or passages of the source.
How the values were obtained:
human GLP1R = human GLP1R (Homo sapiens, UniProt P43220); assay: cAMP activity assay, cells expressing human GLP1R; type: cell-based
Description: Activity of the incretin peptides or the conjugates at the Glucagon receptor (GCGR) and GLP-1 receptor (GLP1R) may be measured in a cAMP activity assay as follows.
Peptides are dissolved in 100% DMSO and serially diluted to generate 10 point titrations. The peptide solutions are then transferred into 384-well assay plates (150 nL/well). Assay ready frozen cells expressing human GLP1R or human GCGR are suspended in growth media consisting of DMEM medium (GIBCO), 10% FBS (GIBCO), 1×NEAA(GIBCO), 1×P/S (GIBCO), 10 μg/mL Blasticidin (GIBCO) and 200 μg/mL Hygromycin (GIBCO). […] The cell suspensions (15 μL) are then added to the assay plates containing the peptide solutions (30,000 cells/well for human GCGR; 10,000 cells/well for human GLP1R). The cells are incubated for one hour at room temperature in the dark.
Production of cAMP may be determined using HitHunterr cAMPXS kits (DiscoverX) following the manufacturer's protocol. The plates are incubated for overnight at room temperature in the dark. Luminescence may be measured using an EnVision Multilabel plate reader (Perkin Elmer). Native GLP-1 and Glucagon (Bachem) may be used as control peptides. EC50 values may be calculated using uses a 4 parameter logistic fit based on the Levenberg-Marquardt algorithm.

human GCGR = target: T1, human GCGR (Homo sapiens, UniProt P47871); assay: cAMP activity assay, cells expressing human GCGR; type: cell-based; conditions: for GCGR/GLP1R ratio: Table 5, ratio of hGCGR EC50 to hGLP1R EC50;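 as to all read-outs here: cAMP production read by luminescence after one hour of peptide exposure at room temperature, EC50 from logistic curve fit, native glucagon and GLP-1 as control peptides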
T1 construct: expressed in transfected cells; grown with Blasticidin and Hygromycin
T1 sequence (P47871 26-477): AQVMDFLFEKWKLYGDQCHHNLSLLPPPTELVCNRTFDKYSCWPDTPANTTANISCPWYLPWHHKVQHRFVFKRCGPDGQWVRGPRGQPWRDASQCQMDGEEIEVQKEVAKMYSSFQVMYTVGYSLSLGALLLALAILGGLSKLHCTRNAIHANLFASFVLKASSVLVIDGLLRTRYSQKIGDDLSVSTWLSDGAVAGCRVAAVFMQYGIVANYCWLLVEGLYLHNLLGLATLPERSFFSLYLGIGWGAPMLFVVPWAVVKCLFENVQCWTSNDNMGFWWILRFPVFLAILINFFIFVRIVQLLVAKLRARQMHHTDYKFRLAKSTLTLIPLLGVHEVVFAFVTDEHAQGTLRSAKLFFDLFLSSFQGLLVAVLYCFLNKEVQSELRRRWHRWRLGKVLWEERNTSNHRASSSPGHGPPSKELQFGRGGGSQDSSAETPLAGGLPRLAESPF

Sequence of human GLP1R (P43220 24-463): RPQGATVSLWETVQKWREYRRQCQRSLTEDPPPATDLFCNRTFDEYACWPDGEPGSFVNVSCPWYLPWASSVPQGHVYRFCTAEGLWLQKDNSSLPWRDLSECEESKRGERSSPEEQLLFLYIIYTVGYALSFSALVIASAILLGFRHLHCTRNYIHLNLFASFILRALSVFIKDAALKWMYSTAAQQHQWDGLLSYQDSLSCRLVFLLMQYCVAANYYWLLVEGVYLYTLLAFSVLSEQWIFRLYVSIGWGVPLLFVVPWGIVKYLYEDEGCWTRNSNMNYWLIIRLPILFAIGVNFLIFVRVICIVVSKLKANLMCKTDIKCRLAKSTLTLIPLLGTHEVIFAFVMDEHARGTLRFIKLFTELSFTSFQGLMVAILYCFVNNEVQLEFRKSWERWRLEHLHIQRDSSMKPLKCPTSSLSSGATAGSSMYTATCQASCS

Compound	EC50 (human GLP1R; Table 5, incretin peptides, cAMP, read-out: hGLP1R EC50) [nM]	GCGR/GLP1R ratio (human GCGR)	EC50 (human GLP1R) [nM]	EC50 (human GCGR) [nM]	Ratio GCGR/GLP1R (human GCGR; Table 7, control molecules)
CCCCCCCCCCCCCCCC(=O)N[C@@H](CCC(=O)N[C@@H](CCC(=O)NCCCC[C@H](NC(=O)[C@H](CC(=O)O)NC(=O)[C@H](CO)NC(=O)[C@@H](NC(=O)[C@H](Cc1ccccc1)NC(=O)[C@@H](NC(=O)CNC(=O)[C@H](CCC(N)=O)NC(=O)[C@@H](CO)NC(=O)[C@@H](N)Cc1c[nH]cn1)[C@@H](C)O)[C@@H](C)O)C(=O)N[C@@H](CO)C(=O)N[C@@H](CCCCN)C(=O)N[C@@H](Cc1ccc(O)cc1)C(=O)N[C@@H](CC(C)C)C(=O)N[C@@H](CC(=O)O)C(=O)N[C@@H](CCC(=O)O)C(=O)N[C@@H](CCCNC(=N)N)C(=O)N[C@@H](C)C(=O)N[C@@H](C)C(=O)N[C@@H](CCC(N)=O)C(=O)N[C@@H](CCCCN=[N+]=[N-])C(=O)N[C@@H](Cc1ccccc1)C(=O)N[C@H](C(=O)N[C@@H](CCC(N)=O)C(=O)N[C@@H](Cc1c[nH]c2ccccc12)C(=O)N[C@@H](CC(C)C)C(=O)N[C@@H](CC(C)C)C(=O)N[C@@H](CC(=O)O)C(=O)N[C@H](C(N)=O)[C@@H](C)O)C(C)C)C(=O)O)C(=O)O [PEP1]	0.03	0.5			
CCCCCCCCCCCCCCCC(=O)N[C@@H](CCC(=O)N[C@@H](CCC(=O)NCCCC[C@H](NC(=O)[C@H](CC(=O)O)NC(=O)[C@H](CO)NC(=O)[C@@H](NC(=O)[C@H](Cc1ccccc1)NC(=O)[C@@H](NC(=O)CNC(=O)[C@H](CCC(N)=O)NC(=O)C(C)(C)NC(=O)[C@@H](N)Cc1c[nH]cn1)[C@@H](C)O)[C@@H](C)O)C(=O)N[C@@H](CO)C(=O)N[C@@H](CCCCN)C(=O)N[C@@H](Cc1ccc(O)cc1)C(=O)N[C@@H](CC(C)C)C(=O)N[C@@H](CC(=O)O)C(=O)N[C@@H](CCC(=O)O)C(=O)N[C@@H](CCCNC(=N)N)C(=O)N[C@@H](C)C(=O)N[C@@H](C)C(=O)N[C@@H](CCC(N)=O)C(=O)N[C@@H](CC(=O)O)C(=O)N[C@@H](Cc1ccccc1)C(=O)N[C@H](C(=O)N[C@@H](CCCCN=[N+]=[N-])C(=O)N[C@@H](Cc1c[nH]c2ccccc12)C(=O)N[C@@H](CC(C)C)C(=O)N[C@@H](CC(C)C)C(=O)N[C@@H](CC(=O)O)C(=O)NCC(=O)N[C@@H](CCCNC(=N)N)C(=O)NCC(N)=O)C(C)C)C(=O)O)C(=O)O [PEP2]		3.7	0.03	0.11	
CCCCCCCCCCCCCCCC(=O)N[C@@H](CCC(=O)N[C@@H](CCC(=O)NCCCC[C@H](NC(=O)[C@H](CC(=O)O)NC(=O)[C@H](CO)NC(=O)[C@@H](NC(=O)[C@H](Cc1ccccc1)NC(=O)[C@@H](NC(=O)CNC(=O)[C@H](CCC(N)=O)NC(=O)C(C)(C)NC(=O)[C@@H](N)Cc1c[nH]cn1)[C@@H](C)O)[C@@H](C)O)C(=O)N[C@@H](CO)C(=O)N[C@@H](CCCCN)C(=O)N[C@@H](Cc1ccc(O)cc1)C(=O)N[C@@H](CC(C)C)C(=O)N[C@@H](CC(=O)O)C(=O)NC(C)(C)C(=O)N[C@@H](CCCNC(=N)N)C(=O)N[C@@H](C)C(=O)N[C@@H](C)C(=O)N[C@@H](CCC(N)=O)C(=O)N[C@@H](CC(=O)O)C(=O)N[C@@H](Cc1ccccc1)C(=O)N[C@H](C(=O)N[C@@H](CCCCN=[N+]=[N-])C(=O)N[C@@H](Cc1c[nH]c2ccccc12)C(=O)N[C@@H](CC(C)C)C(=O)N[C@@H](CCS(C)(=O)=O)C(=O)N[C@@H](CCCCN)C(=O)NCC(=O)N[C@@H](CCCNC(=N)N)C(=O)NCC(N)=O)C(C)C)C(=O)O)C(=O)O [PEP3]		4.6	0.02	0.07	
CCCCCCCCCCCCCCCC(=O)N[C@@H](CCC(=O)N[C@@H](CCC(=O)NCCCC[C@H](NC(=O)[C@H](CC(=O)O)NC(=O)[C@H](CO)NC(=O)[C@@H](NC(=O)[C@H](Cc1ccccc1)NC(=O)[C@@H](NC(=O)CNC(=O)[C@H](CCC(N)=O)NC(=O)C(C)(C)NC(=O)[C@@H](N)Cc1c[nH]cn1)[C@@H](C)O)[C@@H](C)O)C(=O)N[C@@H](CO)C(=O)N[C@@H](CCCCN)C(=O)N[C@@H](Cc1ccc(O)cc1)C(=O)N[C@@H](CC(C)C)C(=O)N[C@@H](CC(=O)O)C(=O)NC(C)(C)C(=O)N[C@@H](CCCNC(=N)N)C(=O)N[C@@H](CCCNC(=N)N)C(=O)N[C@@H](C)C(=O)N[C@@H](CCC(N)=O)C(=O)N[C@@H](CC(=O)O)C(=O)N[C@@H](Cc1ccccc1)C(=O)N[C@H](C(=O)N[C@@H](CCC(N)=O)C(=O)N[C@@H](Cc1c[nH]c2ccccc12)C(=O)N[C@@H](CC(C)C)C(=O)N[C@@H](CC(C)C)C(=O)N[C@@H](CC(=O)O)C(=O)N[C@H](C(=O)N[C@@H](CCCCN=[N+]=[N-])C(=O)N[C@@H](CCC(N)=O)C(=O)O)[C@@H](C)O)C(C)C)C(=O)O)C(=O)O [PEP6]			0.17	0.07	
CCCCCCCCCCCCCCCC(=O)N[C@@H](CCC(=O)N[C@@H](CCC(=O)NCCCC[C@H](NC(=O)[C@H](CC(=O)O)NC(=O)[C@H](CO)NC(=O)[C@@H](NC(=O)[C@H](Cc1ccccc1)NC(=O)[C@@H](NC(=O)CNC(=O)[C@H](CCC(N)=O)NC(=O)C(C)(C)NC(=O)[C@@H](N)Cc1c[nH]cn1)[C@@H](C)O)[C@@H](C)O)C(=O)N[C@@H](CO)C(=O)N[C@@H](CCCCN)C(=O)N[C@@H](Cc1ccc(O)cc1)C(=O)N[C@@H](CC(C)C)C(=O)N[C@@H](CC(=O)O)C(=O)NC(C)(C)C(=O)N[C@@H](CCCNC(=N)N)C(=O)N[C@@H](C)C(=O)N[C@@H](C)C(=O)N[C@@H](CCC(N)=O)C(=O)N[C@@H](CC(=O)O)C(=O)N[C@@H](Cc1ccccc1)C(=O)N[C@H](C(=O)N[C@@H](CCCCN=[N+]=[N-])C(=O)N[C@@H](Cc1c[nH]c2ccccc12)C(=O)N[C@@H](CC(C)C)C(=O)N[C@@H](CCS(C)(=O)=O)C(=O)N[C@@H](CC(=O)O)C(=O)N[C@H](C(N)=O)[C@@H](C)O)C(C)C)C(=O)O)C(=O)O [PEP10]		0.7	0.03	0.02	
CC(C)C[C@H](NC(=O)[C@H](Cc1ccc(O)cc1)NC(=O)[C@H](CCCCN)NC(=O)[C@H](CO)NC(=O)[C@H](CCCCNC(=O)COCCOCCNC(=O)COCCOCCNC(=O)CC[C@H](NC(=O)CCCCCCCCCCCCCCCCC(=O)O)C(=O)O)NC(=O)[C@H](CC(=O)O)NC(=O)[C@H](CO)NC(=O)[C@@H](NC(=O)[C@H](Cc1ccccc1)NC(=O)[C@@H](NC(=O)CNC(=O)[C@H](CCC(N)=O)NC(=O)[C@@H](CO)NC(=O)[C@@H](N)Cc1c[nH]cn1)[C@@H](C)O)[C@@H](C)O)C(=O)N[C@@H](CC(=O)O)C(=O)N[C@@H](CCC(=O)O)C(=O)N[C@@H](CCCNC(=N)N)C(=O)N[C@@H](C)C(=O)N[C@@H](C)C(=O)N[C@@H](CCC(N)=O)C(=O)N[C@@H](CC(=O)O)C(=O)N[C@@H](Cc1ccccc1)C(=O)N[C@H](C(=O)N[C@@H](CCCCN=[N+]=[N-])C(=O)N[C@@H](Cc1c[nH]c2ccccc12)C(=O)N[C@@H](CC(C)C)C(=O)N[C@@H](CC(C)C)C(=O)N[C@@H](CC(=O)O)C(=O)N[C@H](C(N)=O)[C@@H](C)O)C(C)C [PEP29]		1.0			
CC(C)C[C@H](NC(=O)[C@H](Cc1ccc(O)cc1)NC(=O)[C@H](CCCCN)NC(=O)[C@H](CO)NC(=O)[C@H](Cc1ccc(O)cc1)NC(=O)[C@H](CC(=O)O)NC(=O)[C@H](CO)NC(=O)[C@@H](NC(=O)[C@H](Cc1ccccc1)NC(=O)[C@@H](NC(=O)CNC(=O)[C@H](CCC(N)=O)NC(=O)C(C)(C)NC(=O)[C@@H](N)Cc1c[nH]cn1)[C@@H](C)O)[C@@H](C)O)C(=O)N[C@@H](CC(=O)O)C(=O)N[C@@H](C)C(=O)N[C@@H](CCCNC(=N)N)C(=O)N[C@@H](C)C(=O)N[C@@H](C)C(=O)N[C@@H](CCCCNC(=O)COCCOCCNC(=O)COCCOCCNC(=O)CC[C@H](NC(=O)CCCCCCCCCCCCCCCCCCC(=O)O)C(=O)O)C(=O)N[C@@H](CC(=O)O)C(=O)N[C@@H](Cc1ccccc1)C(=O)N[C@H](C(=O)N[C@@H](CCCCN=[N+]=[N-])C(=O)N[C@@H](Cc1c[nH]c2ccccc12)C(=O)N[C@@H](CC(C)C)C(=O)N[C@@H](CCS(C)(=O)=O)C(=O)N[C@@H](CC(=O)O)C(=O)N[C@H](C(N)=O)[C@@H](C)O)C(C)C [PEP31]		3.1			
CC(C)C[C@H](NC(=O)[C@H](Cc1ccc(O)cc1)NC(=O)[C@H](CCCCN)NC(=O)[C@H](CO)NC(=O)[C@H](CCCCN)NC(=O)[C@H](CC(=O)O)NC(=O)[C@H](CO)NC(=O)[C@@H](NC(=O)[C@H](Cc1ccccc1)NC(=O)[C@@H](NC(=O)CNC(=O)[C@H](CCC(N)=O)NC(=O)[C@@H](CO)NC(=O)[C@@H](N)Cc1c[nH]cn1)[C@@H](C)O)[C@@H](C)O)C(=O)N[C@@H](CC(=O)O)C(=O)N[C@@H](CCC(=O)O)C(=O)N[C@@H](CCCNC(=N)N)C(=O)N[C@@H](C)C(=O)N[C@@H](C)C(=O)N[C@@H](CCC(N)=O)C(=O)N[C@@H](CC(=O)O)C(=O)N[C@@H](Cc1ccccc1)C(=O)N[C@H](C(=O)N[C@@H](CCC(N)=O)C(=O)N[C@@H](Cc1c[nH]c2ccccc12)C(=O)N[C@@H](CC(C)C)C(=O)N[C@@H](CC(C)C)C(=O)N[C@@H](CC(=O)O)C(=O)N[C@H](C(=O)N[C@@H](CCCCN=[N+]=[N-])C(N)=O)[C@@H](C)O)C(C)C [PEP73]		0.6			
CCCCCCCCCCCCCCCC(=O)N[C@@H](CCC(=O)N[C@@H](CCC(=O)NCCCC[C@H](NC(=O)[C@H](CC(=O)O)NC(=O)[C@H](CO)NC(=O)[C@@H](NC(=O)[C@H](Cc1ccccc1)NC(=O)[C@@H](NC(=O)CNC(=O)[C@H](CCC(N)=O)NC(=O)[C@@H](CO)NC(=O)[C@@H](N)Cc1c[nH]cn1)[C@@H](C)O)[C@@H](C)O)C(=O)N[C@@H](CO)C(=O)N[C@@H](CCCCN)C(=O)N[C@@H](Cc1ccc(O)cc1)C(=O)N[C@@H](CC(C)C)C(=O)N[C@@H](CC(=O)O)C(=O)N[C@@H](CCC(=O)O)C(=O)N[C@@H](CCCNC(=N)N)C(=O)N[C@@H](C)C(=O)N[C@@H](C)C(=O)N[C@@H](CCC(N)=O)C(=O)N[C@@H](CC(=O)O)C(=O)N[C@@H](Cc1ccccc1)C(=O)N[C@H](C(=O)N[C@@H](CCC(N)=O)C(=O)N[C@@H](Cc1c[nH]c2ccccc12)C(=O)N[C@@H](CC(C)C)C(=O)N[C@@H](CC(C)C)C(=O)N[C@@H](CC(=O)O)C(=O)N[C@H](C(N)=O)[C@@H](C)O)C(C)C)C(=O)O)C(=O)O [PEP76, reference compound]					1.3
HsQGTGTSD-K(γEγEC16)SKYLDURAAQDFV-Nle(ϵN3)-WLLDT-NH2 [PEP7]		0.2			

— US20190175744A1, “INSULIN-INCRETIN CONJUGATES” (Merck Sharp & Dohme Corp., priority 2016, published 2019)
